What was measured:
[1] = Cytotoxicity against Homo sapiens (human) HET-1A cells assessed as inhibition of cell survival after 24 hr by MTT assay; type: cell-based
[2] = Cytotoxicity against Homo sapiens (human) KYSE-30 cells assessed as inhibition of cell survival after 24 hr by MTT assay; type: functional, cell-based; details: KYSE-30, 24 h
[3] = Cytotoxicity against Homo sapiens (human) KYSE-150 cells assessed as inhibition of cell survival after 24 hr by MTT assay; type: functional, cell-based; details: KYSE-150, 24 h
[4] = tested on: KYSE-270; assay: Cytotoxicity against Homo sapiens (human) KYSE-270 cells assessed as inhibition of cell survival after 24 hr by MTT assay; type: functional, cell-based; details: KYSE-270, 24 h

Compound | IC50 [1] | IC50 [2] | IC50 [3] | IC50 [4]
COc1ccccc1NC(c1ccco1)P(=O)(OC)OC (centres undefined) | > 400 µM | 38 µM | 51.3 µM | 77.4 µM
COc1ccc(NC(c2ccco2)P(=O)(OC)OC)cc1 (centres undefined) | > 400 µM | 316 µM | 166 µM | 224 µM
COc1ccc(NC(c2ccco2)P(=O)(Oc2ccccc2)Oc2ccccc2)cc1 (centres undefined) | > 400 µM | > 400 µM | 209 µM | 205 µM
Cc1ccccc1NC(c1ccco1)P(=O)(Oc1ccccc1)Oc1ccccc1 (centres undefined) | > 400 µM | 251 µM | > 400 µM | > 400 µM
Cc1cccc(NC(c2ccco2)P(=O)(Oc2ccccc2)Oc2ccccc2)c1 (centres undefined) | > 400 µM | 380 µM | > 400 µM | > 400 µM
Cc1ccc(NC(c2ccco2)P(=O)(Oc2ccccc2)Oc2ccccc2)cc1 (centres undefined) | > 400 µM | > 400 µM | > 400 µM | > 400 µM
COc1cccc(NC(c2ccco2)P(=O)(OCc2ccccc2)OCc2ccccc2)c1 (centres undefined) | > 400 µM | 251 µM | 200 µM | 251 µM
Cc1cccc(/N=C/c2ccco2)c1 [N-FURFURYLIDENE-M-TOLUIDINE] | > 400 µM | 158 µM | 50.1 µM | 111 µM
COc1ccccc1/N=C/c1ccco1 [N-FURFURYLIDENE-O-ANISIDINE] | > 400 µM | > 400 µM | > 400 µM | > 400 µM
COc1ccc(/N=C/c2ccco2)cc1 [N-FURFURYLIDENE-P-ANISIDINE] | > 400 µM | > 400 µM | > 400 µM | > 400 µM
Cc1ccc(/N=C\c2ccco2)cc1 [N-FURFURYLIDENE-P-TOLUIDINE] | > 400 µM | > 400 µM | 380 µM | 398 µM

From ChEMBL document CHEMBL3046157, “Synthesis of new N-arylamino(2-furyl)methylphosphonic acid diesters, and in vitro evaluation of their cytotoxicity against esophageal cancer cells” (Med Chem Res, 2013)
